According to publication PMC6004566 (ACS Medicinal Chemistry Letters, 2018):

Tests used:
[1] = target: T1, NOTUM (Homo sapiens, UniProt Q6P988); assay: Competitive gel-based ABPP; type: biochemical; details: 10 μM, 30 min pretreatment at 37 °C; CM of WT-NOTUM-transfected HEK293T cells
T1 sequence (Q6P988 20-496): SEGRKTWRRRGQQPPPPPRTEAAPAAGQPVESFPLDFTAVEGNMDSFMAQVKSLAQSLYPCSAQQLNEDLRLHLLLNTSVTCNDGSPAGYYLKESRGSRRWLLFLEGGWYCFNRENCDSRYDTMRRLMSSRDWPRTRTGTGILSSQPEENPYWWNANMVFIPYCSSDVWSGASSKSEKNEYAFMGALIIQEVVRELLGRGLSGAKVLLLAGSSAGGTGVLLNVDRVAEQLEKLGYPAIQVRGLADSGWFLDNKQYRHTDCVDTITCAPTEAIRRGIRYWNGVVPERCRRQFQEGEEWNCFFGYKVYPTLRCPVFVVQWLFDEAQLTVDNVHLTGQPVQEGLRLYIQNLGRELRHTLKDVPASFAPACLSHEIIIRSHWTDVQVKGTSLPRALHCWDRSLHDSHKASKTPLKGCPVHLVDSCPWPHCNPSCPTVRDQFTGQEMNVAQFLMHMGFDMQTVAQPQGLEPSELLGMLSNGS

[2] = target: T2, PPT1 (Homo sapiens, UniProt P50897); type: cell-based; details: SW620 cells in situ 2 h; ABC45 probe 1 µM
T2 sequence (P50897 28-306): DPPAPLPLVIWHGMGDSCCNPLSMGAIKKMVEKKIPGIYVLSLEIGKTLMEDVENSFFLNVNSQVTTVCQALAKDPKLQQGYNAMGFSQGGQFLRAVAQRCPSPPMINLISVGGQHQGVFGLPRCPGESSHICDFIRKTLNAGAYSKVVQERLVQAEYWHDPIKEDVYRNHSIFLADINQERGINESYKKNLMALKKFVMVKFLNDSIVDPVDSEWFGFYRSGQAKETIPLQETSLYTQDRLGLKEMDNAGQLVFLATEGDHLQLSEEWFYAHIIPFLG

[3] = tested on: serine hydrolases; assay: Competitive gel-based ABPP; type: cell-based, human; details: SW620 soluble and membrane proteomes, in situ 2 h, 37 °C, FP-Rh
[4] = target: T1, NOTUM; type: biochemical; details: SW620 CM; for inhibitory activity for NOTUM: competitive gel-based ABPP
[5] = tested on: FP-biotin-enriched proteins of SW620 conditioned media; assay: Quantitative MS-based ABPP of SW620 CM; type: biochemical, human; details: 0.5 and 10 μM; both CM and SW620 in situ treated cells
[6] = target: T1, NOTUM; assay: ABC99yne direct labeling; details: 0.1 μM probe; CM and cellular lysate of SW620 cells; Rh-N3 click
[7] = target: T3, ABHD6 (Homo sapiens, UniProt Q9BV23); assay: MS-based ABPP, SW620 cells in situ; type: cell-based; details: 10 µM, Supplementary Figure 3
T3 sequence (Q9BV23 1-337): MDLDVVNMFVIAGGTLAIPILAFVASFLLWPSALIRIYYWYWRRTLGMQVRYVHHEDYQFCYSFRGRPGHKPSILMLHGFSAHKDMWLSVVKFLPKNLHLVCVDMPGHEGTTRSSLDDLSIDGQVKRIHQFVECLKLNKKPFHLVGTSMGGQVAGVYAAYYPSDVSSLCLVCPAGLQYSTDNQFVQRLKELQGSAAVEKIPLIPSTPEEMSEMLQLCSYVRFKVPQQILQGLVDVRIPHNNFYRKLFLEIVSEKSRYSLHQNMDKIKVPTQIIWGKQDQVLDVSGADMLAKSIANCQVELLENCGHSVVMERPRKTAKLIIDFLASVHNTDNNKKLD

Compound: COc1ccc(N2CCN(C(=O)ON3C(=O)C4CN(Cc5ccc(Br)cc5)CCN4C3=O)CC2)cc1 (stereo not drawn) [ABC28]
- FP-Rh reactivity with NOTUM [1]: blocked FP-Rh reactivity with NOTUM

Compound: O=C1C2CN(Cc3ccc(Oc4ccccc4)nc3)CCN2C(=O)N1OC(=O)N1CCOc2ccccc21 (stereo not drawn) [ABC63]
- FP-Rh reactivity with NOTUM [1]: blocked FP-Rh reactivity with NOTUM
- PPT1 inhibition [2]: did not inhibit PPT1 at concentrations up to 10 μM

Compound: COc1ccc(N2CCN(C(=O)ON3C(=O)C4CN(Cc5ccc(Cl)cc5)CCN4C3=O)CC2)cc1 (stereo not drawn) [ABC90]
- selectivity across serine hydrolases [3]: only a single major site of ABC90 cross reactivity was observed; a 35 kDa protein that we suspected was ABHD6
- PPT1 inhibition [2]: potent inhibitor of PPT1

Compound: COc1ccc(N2CCN(C(=O)ON3C(=O)C4CN(Cc5cccc(Cl)c5)CCN4C3=O)CC2)cc1 (stereo not drawn) [ABC91]
- inhibitory activity for NOTUM [4]: completely lost activity

Compound: O=C1C2CN(Cc3ccc(Cl)cc3)CCN2C(=O)N1OC(=O)N1CCOc2ccccc21 (stereo not drawn) [ABC99]
- cross-reactivity with the 64 additional serine hydrolases quantified by MS-ABPP [5]: virtually no cross-reactivity
- PPT1 inhibition [2]: did not cross-react

Compound: C#CCN1CCN(C(=O)ON2C(=O)C3CN(Cc4ccc(Cl)cc4)CCN3C2=O)c2ccccc21 (stereo not drawn) [ABC99yne]
- IC50 for blockade of FP-Rh reactivity of NOTUM ([4]; 30 min, 37 °C): sub-micromolar
- direct labeling selectivity [6]: highly selective labeling of NOTUM with no other cross-reactive proteins observed

Compound: O=C(c1ccc(Cl)cc1)N1CCN2C(=O)N(OC(=O)N3CCOc4ccccc43)C(=O)C2C1 (stereo not drawn) [ABC101]
- inhibitory activity for NOTUM [4]: lost inhibitory activity for NOTUM
- inhibition of ABHD6 [7]: maintained inhibition of ABHD6
